Each structure is given as a SMILES string.

`Cn1c(C#N)ccc1-c1ccc2c(c1F)C1(CC1)C(=O)N2` [Example 5, 5-(4′-fluoro-2′-oxospiro[cyclopropane-1,3′-indoline]-5′-yl)-1-methyl-1H-pyrrole-2-carbonitrile] yielded a melting point of 222.5 to 223.8 °C.

Usually melting point stands for the temperature of the solid-liquid transition.

The values are drawn from patent publication US20080051585A1, “Process for the preparation of indolin-2-one derivatives useful as PR modulators” (Wyeth, priority 2006, published 2008).
